Data published in ChEMBL document CHEMBL1201862, “PubChem BioAssay data set” (2004).
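Each compound was tested at five concentrations against cells in 96-well plates for 48 hours. GI50 is the concentration that inhibits growth by half.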 Activity calls are given as the source filed them. No stated cut-off is given here; in the data, active = GI50 up to about 1.1 µM and inactive = higher.

Legend:
Assay in all cases: NCI anticancer screen, dose series, 48 h
786-0 = system: 786-0
A549 = system: A549
CAKI-1 = system: CAKI-1
CCRF-CEM = system: CCRF-CEM
COLO 205 = system: COLO 205
DLD-1 = system: DLD-1
DMS-273 = system: DMS-273
EKVX = system: EKVX
HCC 2998 = system: HCC 2998
HCT-116 = system: HCT-116
HOP-92 = system: HOP-92
HT-29 = system: HT-29
IGROV-1 = system: IGROV-1
K562 = system: K562
KM-20L2 = system: KM-20L2
KM12 = system: KM12
LOX IMVI = system: LOX IMVI
LXFL 529 = system: LXFL 529
M14 = system: M14
M19-MEL = system: M19-MEL
MOLT-4 = system: MOLT-4
Malme-3M = system: Malme-3M
NCI-H226 = system: NCI-H226
NCI-H23 = system: NCI-H23
NCI-H460 = system: NCI-H460
NCI-H522 = system: NCI-H522
OVCAR-3 = system: OVCAR-3
OVCAR-4 = system: OVCAR-4
OVCAR-5 = system: OVCAR-5
OVCAR-8 = system: OVCAR-8
RXF 393 = system: RXF 393
SF-268 = system: SF-268
SF-295 = system: SF-295
SF-539 = system: SF-539
SK-MEL-28 = system: SK-MEL-28
SK-MEL-2 = system: SK-MEL-2
SK-MEL-5 = system: SK-MEL-5
SK-OV-3 = system: SK-OV-3
SN12C = system: SN12C
SNB-19 = system: SNB-19
SNB-75 = system: SNB-75
SNB-78 = system: SNB-78
SR = system: SR
SW-620 = system: SW-620
TK-10 = system: TK-10
U-251 = system: U-251
UACC-62 = system: UACC-62
UO-31 = system: UO-31
XF498 = system: XF498
A498 = system: A498
ACHN = system: ACHN
HCT-15 = system: HCT-15
HL-60 = system: HL-60
HOP-62 = system: HOP-62
UACC-257 = system: UACC-257

For `COc1ccc(/C=c2/sc3n(c2=O)NC2(CCCCC2)NN=3)cc1`, the GI50 (786-0) was > 100 µM (inactive), the GI50 (A549) was > 100 µM (inactive) and the GI50 (CAKI-1) was > 100 µM (inactive). For the same compound, the GI50 (CCRF-CEM) was > 100 µM (inactive), the GI50 (COLO 205) was > 100 µM (inactive) and the GI50 (DLD-1) was > 100 µM (inactive). For the same compound, the GI50 (DMS-273) was > 100 µM (inactive), the GI50 (EKVX) was > 100 µM (inactive) and the GI50 (HCC 2998) was > 100 µM (inactive). The GI50 (HCT-116) was > 100 µM (inactive), the GI50 (HOP-92) was > 100 µM (inactive) and the GI50 (HT-29) was > 100 µM (inactive). For the same compound, the GI50 (IGROV-1) was > 100 µM (inactive), the GI50 (K562) was > 100 µM (inactive) and the GI50 (KM-20L2) was > 100 µM (inactive). For the same compound, the GI50 (KM12) was > 100 µM (inactive), the GI50 (LOX IMVI) was > 100 µM (inactive) and the GI50 (LXFL 529) was > 100 µM (inactive). The GI50 (M14) was > 100 µM (inactive), the GI50 (M19-MEL) was > 100 µM (inactive) and the GI50 (MOLT-4) was > 100 µM (inactive). The GI50 (Malme-3M) was > 100 µM (inactive), the GI50 (NCI-H226) was > 100 µM (inactive) and the GI50 (NCI-H23) was > 100 µM (inactive). For the same compound, the GI50 (NCI-H460) was > 100 µM (inactive), the GI50 (NCI-H522) was > 100 µM (inactive) and the GI50 (OVCAR-3) was > 100 µM (inactive). For the same compound, the GI50 (OVCAR-4) was > 100 µM (inactive), the GI50 (OVCAR-5) was > 100 µM (inactive) and the GI50 (OVCAR-8) was > 100 µM (inactive). For the same compound, the GI50 (RXF 393) was > 100 µM (inactive), the GI50 (SF-268) was > 100 µM (inactive) and the GI50 (SF-295) was > 100 µM (inactive). For the same compound, the GI50 (SF-539) was > 100 µM (inactive), the GI50 (SK-MEL-28) was > 100 µM (inactive) and the GI50 (SK-MEL-2) was > 100 µM (inactive). For the same compound, the GI50 (SK-MEL-5) was > 100 µM (inactive), the GI50 (SK-OV-3) was > 100 µM (inactive) and the GI50 (SN12C) was > 100 µM (inactive). For the same compound, the GI50 (SNB-19) was > 100 µM (inactive), the GI50 (SNB-75) was 92.7 µM (inactive) and the GI50 (SNB-78) was > 100 µM (inactive). For the same compound, the GI50 (SR) was > 100 µM (inactive), the GI50 (SW-620) was > 100 µM (inactive) and the GI50 (TK-10) was > 100 µM (inactive). The GI50 (U-251) was > 10 µM (inactive), the GI50 (UACC-62) was > 100 µM (inactive) and the GI50 (UO-31) was > 100 µM (inactive). The GI50 (XF498) was > 100 µM (inactive).
In the case of `CCCO/N=[N+](\[O-])N(CC)CC`, the GI50 (A498) is reported as > 100 µM (inactive), the GI50 (A549) is reported as > 100 µM (inactive) and the GI50 (ACHN) is reported as > 100 µM (inactive). For the same compound, the GI50 (CCRF-CEM) was > 100 µM (inactive), the GI50 (DMS-273) was > 100 µM (inactive) and the GI50 (EKVX) was > 100 µM (inactive). For the same compound, the GI50 (HCC 2998) was > 100 µM (inactive), the GI50 (HCT-116) was > 100 µM (inactive) and the GI50 (HCT-15) was > 100 µM. The GI50 (HL-60) was > 100 µM (inactive), the GI50 (HOP-62) was > 100 µM (inactive) and the GI50 (HOP-92) was > 100 µM (inactive). The GI50 (HT-29) was > 100 µM (inactive), the GI50 (IGROV-1) was > 100 µM (inactive) and the GI50 (K562) was > 100 µM (inactive). The GI50 (KM-20L2) was > 100 µM (inactive), the GI50 (KM12) was > 100 µM (inactive) and the GI50 (LOX IMVI) was > 100 µM (inactive). For the same compound, the GI50 (LXFL 529) was > 100 µM (inactive), the GI50 (M14) was > 100 µM (inactive) and the GI50 (MOLT-4) was > 100 µM (inactive). The GI50 (NCI-H226) was > 100 µM (inactive), the GI50 (NCI-H23) was > 100 µM (inactive) and the GI50 (NCI-H460) was > 100 µM (inactive). For the same compound, the GI50 (NCI-H522) was > 100 µM (inactive), the GI50 (OVCAR-3) was > 100 µM (inactive) and the GI50 (OVCAR-5) was > 100 µM (inactive). The GI50 (OVCAR-8) was > 100 µM (inactive), the GI50 (RXF 393) was > 100 µM (inactive) and the GI50 (SF-268) was > 100 µM (inactive). The GI50 (SF-295) was > 100 µM (inactive), the GI50 (SF-539) was > 100 µM (inactive) and the GI50 (SK-MEL-28) was > 100 µM (inactive). For the same compound, the GI50 (SK-MEL-2) was > 100 µM (inactive), the GI50 (SK-MEL-5) was > 100 µM (inactive) and the GI50 (SK-OV-3) was > 100 µM (inactive). The GI50 (SN12C) was > 100 µM (inactive), the GI50 (SNB-19) was > 100 µM (inactive) and the GI50 (SNB-78) was > 100 µM (inactive). For the same compound, the GI50 (SR) was > 100 µM (inactive), the GI50 (SW-620) was > 100 µM (inactive) and the GI50 (TK-10) was > 100 µM (inactive). The GI50 (U-251) was > 100 µM (inactive), the GI50 (UACC-257) was > 100 µM (inactive) and the GI50 (UACC-62) was > 100 µM (inactive). The GI50 (UO-31) was > 100 µM (inactive) and the GI50 (XF498) was > 100 µM (inactive).
